In the CheMixHub viscosity set:

Assay: xn = mol fraction of the nth substance listed

O=C([O-])C(F)(F)F.[Cs+] + O
viscosity [mPa·s], 101 kPa
Conditions | 298.15 K | 303.15 K | 308.15 K | 313.15 K
x1 = 0.00102 | 0.897 | 0.805 | 0.727 | 0.663
x1 = 0.00146 | 0.899 | 0.808 | 0.729 | 0.666
x1 = 0.002202 | 0.904 | 0.812 | 0.734 | 0.67
x1 = 0.00303 | 0.909 | 0.817 | 0.739 | 0.675
x1 = 0.003649 | 0.913 | 0.821 | 0.743 | 0.679
x1 = 0.004385 | 0.918 | 0.826 | 0.747 | 0.684
x1 = 0.005137 | 0.923 | 0.83 | 0.752 | 0.689
x1 = 0.005844 | 0.928 | 0.836 | 0.757 | 0.693
x1 = 0.006694 | 0.933 | 0.841 | 0.762 | 0.698
x1 = 0.007272 | 0.937 | 0.845 | 0.767 | 0.702
x1 = 0.008058 | 0.943 | 0.85 | 0.772 | 0.707
x1 = 0.008713 | 0.947 | 0.855 | 0.777 | 0.711
x1 = 0.009254 | 0.95 | 0.858 | 0.78 | 0.716
x1 = 0.01011 | 0.956 | 0.864 | 0.784 | 0.721

O=CO + O
Conditions | viscosity [mPa·s]
293.15 K, 101.33 kPa, x1 = 0.0417 | 1.098
293.15 K, 101.33 kPa, x1 = 0.1309 | 1.195
293.15 K, 101.33 kPa, x1 = 0.144 | 1.216
293.15 K, 101.33 kPa, x1 = 0.1574 | 1.215
293.15 K, 101.33 kPa, x1 = 0.2621 | 1.323
293.15 K, 101.33 kPa, x1 = 0.2708 | 1.328
293.15 K, 101.33 kPa, x1 = 0.281 | 1.344
293.15 K, 101.33 kPa, x1 = 0.2928 | 1.347
293.15 K, 101.33 kPa, x1 = 0.3352 | 1.394
293.15 K, 101.33 kPa, x1 = 0.338 | 1.4
293.15 K, 101.33 kPa, x1 = 0.3556 | 1.4
293.15 K, 101.33 kPa, x1 = 0.3729 | 1.414
293.15 K, 101.33 kPa, x1 = 0.4039 | 1.478
293.15 K, 101.33 kPa, x1 = 0.4086 | 1.48
293.15 K, 101.33 kPa, x1 = 0.4832 | 1.519
293.15 K, 101.33 kPa, x1 = 0.5055 | 1.525
293.15 K, 101.33 kPa, x1 = 0.5951 | 1.601
293.15 K, 101.33 kPa, x1 = 0.9418 | 1.68
298.15 K, 101 kPa, x1 = 0.0122 | 0.907
298.15 K, 101 kPa, x1 = 0.1286 | 1.041
298.15 K, 101 kPa, x1 = 0.525 | 1.379
298.15 K, 101.33 kPa, x1 = 0.1037 | 0.979
298.15 K, 101.33 kPa, x1 = 0.1496 | 1.029
298.15 K, 101.33 kPa, x1 = 0.1753 | 1.039
298.15 K, 101.33 kPa, x1 = 0.2194 | 1.076
298.15 K, 101.33 kPa, x1 = 0.3029 | 1.174
298.15 K, 101.33 kPa, x1 = 0.3271 | 1.219
298.15 K, 101.33 kPa, x1 = 0.3334 | 1.227
298.15 K, 101.33 kPa, x1 = 0.3355 | 1.228
298.15 K, 101.33 kPa, x1 = 0.3729 | 1.268
298.15 K, 101.33 kPa, x1 = 0.4205 | 1.305
298.15 K, 101.33 kPa, x1 = 0.4762 | 1.356
298.15 K, 101.33 kPa, x1 = 0.4906 | 1.36
298.15 K, 101.33 kPa, x1 = 0.5185 | 1.362
298.15 K, 101.33 kPa, x1 = 0.6055 | 1.427
298.15 K, 101.33 kPa, x1 = 0.9418 | 1.598
303.15 K, 101 kPa, x1 = 0.0501 | 0.849
303.15 K, 101 kPa, x1 = 0.1061 | 0.897
303.15 K, 101 kPa, x1 = 0.169 | 0.95
303.15 K, 101 kPa, x1 = 0.2404 | 0.994
303.15 K, 101 kPa, x1 = 0.3219 | 1.062
303.15 K, 101 kPa, x1 = 0.4159 | 1.156
303.15 K, 101 kPa, x1 = 0.5255 | 1.159
303.15 K, 101 kPa, x1 = 0.655 | 1.234
303.15 K, 101 kPa, x1 = 0.8103 | 1.288
313.15 K, 101.33 kPa, x1 = 0.0417 | 0.729
313.15 K, 101.33 kPa, x1 = 0.144 | 0.809
313.15 K, 101.33 kPa, x1 = 0.281 | 0.92

O=S(=O)([O-])NC1CCCCC1.[Cs+] + O
viscosity [mPa·s], 101 kPa
Conditions | x1 = 0.0009023 | x1 = 0.001363 | x1 = 0.001814 | x1 = 0.002253 | x1 = 0.002731 | x1 = 0.00317 | x1 = 0.003611 | x1 = 0.004062
293.15 K | 1.024 | 1.036 | 1.047 | 1.058 | 1.071 | 1.082 | 1.093 | 1.105
298.15 K | 0.91 | 0.9199 | 0.9302 | 0.9399 | 0.951 | 0.9605 | 0.9704 | 0.9807
303.15 K | 0.8151 | 0.8242 | 0.8329 | 0.8415 | 0.8512 | 0.8595 | 0.8685 | 0.8771
313.15 K | 0.6672 | 0.6742 | 0.6815 | 0.6879 | 0.6959 | 0.7025 | 0.7097 | 0.7163
323.15 K | 0.5584 | 0.5642 | 0.5696 | 0.5753 | 0.5813 | 0.5866 | 0.5921 | 0.5977

O=[N+]([O-])[O-].O=[N+]([O-])[O-].[Ba+2] + O
viscosity [mPa·s], 100 kPa
Conditions | x1 = 0.0003 | x1 = 0.001 | x1 = 0.003 | x1 = 0.004 | x1 = 0.006
298.15 K | 0.888 | 0.9055 | 0.9235 | 0.943 | 0.965
323.15 K | 0.5475 | 0.562 | 0.5775 | 0.59 | 0.603

[Cl-].[Cl-].[Cl-].[La+3] + O
viscosity [mPa·s]
Conditions | 293.15 K | 298.15 K | 303.15 K | 308.15 K | 318.15 K
100 kPa, x1 = 0.000538 | 1.026 | 0.9124 | 0.8179 | 0.7374 | –
100 kPa, x1 = 0.000907 | 1.037 | 0.922 | 0.8265 | 0.7452 | –
100 kPa, x1 = 0.001802 | – | 0.9485 | 0.8506 | 0.7674 | –
100 kPa, x1 = 0.003595 | 1.12 | 0.9971 | 0.8947 | 0.8106 | –
100 kPa, x1 = 0.005372 | – | – | 0.9462 | 0.857 | –
100 kPa, x1 = 0.007147 | – | – | – | 0.9116 | –
100 kPa, x1 = 0.008936 | – | – | 1.076 | 0.9725 | –
100 kPa, x1 = 0.0107 | – | – | – | 1.041 | –
101 kPa, x1 = 0.008899 | – | – | 1.075 | – | –
101.3 kPa, x1 = 0.0009 | 1.037 | 0.9217 | 0.8261 | 0.7453 | 0.618
101.3 kPa, x1 = 0.0018 | – | – | – | 0.7687 | 0.6382
101.3 kPa, x1 = 0.00893 | – | – | 1.076 | 0.9735 | 0.8112
101.3 kPa, x1 = 0.0177 | 1.818 | 1.623 | 1.46 | 1.322 | 1.102
101.3 kPa, x1 = 0.02631 | 2.522 | 2.246 | 2.016 | 1.824 | 1.516
101.3 kPa, x1 = 0.03478 | 3.611 | 3.199 | 2.857 | 2.573 | 2.12
101.3 kPa, x1 = 0.0431 | 5.287 | 4.642 | 4.114 | 3.678 | 2.992
101.3 kPa, x1 = 0.05127 | 7.977 | 6.922 | 6.069 | 5.371 | 4.29

CC(Cl)(Cl)Cl + O=C1CCCCC1
298.15 K, 101.33 kPa
Conditions | viscosity [mPa·s]
x1 = 0.053 | 1.896
x1 = 0.099 | 1.812
x1 = 0.151 | 1.725
x1 = 0.252 | 1.568
x1 = 0.352 | 1.43
x1 = 0.452 | 1.305
x1 = 0.551 | 1.192
x1 = 0.6 | 1.141
x1 = 0.651 | 1.089
x1 = 0.7 | 1.041
x1 = 0.8 | 0.9504
x1 = 0.861 | 0.8988
